The values below come from patent publication US5316929A, “Process for the preparation of MA” (Hoechst Aktiengesellschaft, priority 1991, dated 1994).

“Also recorded” adds a separate entry of the source.

For one assay, the system named is biosynthesis of the peptidoglycan framework of the bacterial cell wall.
Assay: not given
Conditions: cited from earlier work.
Turning to `C=C(C/C=C(\C)CCC=C(C)C)CCC(C)(C)/C=C/CC/C(C)=C/CO[C@@H](COP(=O)(O)O[C@H]1O[C@H](C(N)=O)[C@@](C)(O)[C@H](OC(N)=O)[C@H]1O[C@@H]1O[C@H](CO[C@@H]2O[C@H](CO)[C@@H](O)[C@H](O)[C@H]2O)[C@@H](O[C@@H]2O[C@H](C)[C@@H](O[C@@H]3O[C@H](C(=O)NC4=C(O)CCC4=O)[C@H](O)[C@H](O)[C@H]3O)[C@H](O)[C@H]2NC(C)=O)[C@H](O)[C@H]1NC(C)=O)C(=O)O` [Moenomycin A], the “Inhibition of the biosynthesis of the peptidoglycan framework of the bacterial cell wall” value is reported as “inhibits”.

In another assay the test system is moenomycinase. Description: Moenomycinase activity (cleavage of moenomycin A, TLC/UV analysis). Conditions: EDTA 10 mM in FIG. 1. The class given is biochemical, Bacillus sp. DSM 4675. Here is the method: Partially purified moenomycinase was dialyzed for 24 hours. The dialyzed moenomycinase was incubated with moenomycin A (6 mg/ml) in 100 mM potassium phosphate buffer, pH 8.0, for 31 hours with the addition of metal ions (0.5 or 1.0 mM, except K^+ =20 mM0 or EDTA (10 mM). Enzyme activity was measured by determining the amount of MC formed using TLC and UV analysis as described in Example 3. The TLC plates were scanned at a wavelength of 254 nm using a DESAGA Chromatogram Densitometer CD50. Enzyme activity is expressed relative to the activity of the dialyzed preparation ("Dial").
FIG. 2. Activation of Moenomycinase by Cobalt. Purified moenomycinase was incubated with moenomycin A in the presence of the indicated concentrations of Co^++. Enzyme activity was measured by determining the amount of MB formed using TLC and UV analysis as described in FIG. 1.
The molecular weight of moenomycinase is 230,000±10,000 Dalton. Moenomycinase has an optical pH of 8.0 to 8.5 and an optimal temperature of 45° to 55° C. Moenomycinase has a Km value of 4 to 10 mmolar based on moenomycin A as substrate.
As to `O=C(O)CN(CCN(CC(=O)O)CC(=O)O)CC(=O)O` [EDTA], the Inhibition of moenomycinase result is “inhibited”. In the case of `CC(=O)OCC1=C(C(=O)O)N2C(=O)[C@@H](NC(=O)CCC[C@@H](N)C(=O)O)[C@H]2SC1` [Cephalosporin C], the Inhibition of moenomycinase entry was “inhibited”. Still for that read-out and setting: in the case of `C=O` [formalin] it was “inhibited”. Regarding `CC(=O)OCC1=C(C(=O)O)N2C(=O)[C@@H](N)[C@H]2SC1` [7-aminocephalosporin acid (7-ACA), 7-aminocephalosporin acid], the Inhibition of moenomycinase entry is reported as “inhibited”.

Still in this assay, the particulars now being: metal ions 0.05-1.0 mM.
`[Ni+2]` [Ni^++]: the Activation of moenomycinase result is reported as “activated; also recorded: greatest activation”. Still for that read-out and setting: in the case of `[Ca+2]` [Ca^++] it was “activated”; in that of `[Mg+2]` [Mg^++], “activated”; in that of `[Co+2]` [Co^++], “activated”.
